Measured values as given in patent US6956037B2, “Benzamide derivatives for the treatment of diseases mediated by cytokines” (AstraZeneca AB, priority 1998, dated 2005).

Experiments:
[1] = target: T1, p38α (Homo sapiens, UniProt Q16539); test: In vitro enzyme assay, p38 kinase inhibition; format: biochemical; settings: read-out: IC50 against p38α
T1 construct: c-myc (N); 6His (N); made in house; host or cells: E. coli (PET vectors)
Protocol: The ability of compounds of the invention to inhibit the enzyme p38 kinase was assessed. Activity of test compounds against each of the p38α and p38β isoforms of the enzyme was determined. […]
Test compounds were solubilised in DMSO and 10 μl of a 1:10 diluted sample in ‘Kinase Buffer’ was added to a well in a Microtiter plate. […] The precipitated protein was phosphorylated by p38 kinase and test compounds were assessed for their ability to inhibit this phosphorylation. The plates were filtered using a Canberra Packard Unifilter and washed with 2% TCA, dried overnight and counted on a Top Count scintillation counter.
Test compounds were tested initially at a single dose and active compounds were retested to allow IC50 values to be determined.

[2] = test system: TNFα production by human peripheral blood mononuclear cells; test: PBMC test: inhibition of LPS-stimulated TNFα production; format: cell-based
Protocol: The ability of compounds of this invention to inhibit TNFα production was assessed by using human peripheral blood mononuclear cells which synthesise and secrete TNFα when stimulated with lipopolysaccharide.
Peripheral blood mononuclear cells (PBMC) were isolated from heparinised (10 units/ml heparin) human blood by density centrifugation (Lymphoprep™; Nycomed). Mononuclear cells were resuspended in culture medium [RPMI 1640 medium (Gibco) supplemented with 50 units/ml penicillin, 50 μg/ml streptomycin, 2 mM glutamine and 1% heat-inactivated human AB serum (Sigma H-1513)]. Compounds were solubilised in DMSO at a concentration of 50 mM, diluted 1:100 in culture medium and subsequently serial dilutions were made in culture medium containing 1% DMSO. PBMCs (2.4×10^5 cells in 160 μl culture medium) were incubated with 20 μl of varying concentrations of test compound (triplicate cultures) or 20 μl culture medium containing 1% DMSO (control wells) for 30 minutes at 37° C. in a humidified (5% CO2/95% air) incubator (Falcon 3072; 96 well flat-bottom tissue culture plates). […] TNFα levels were determined in each sample using a human TNFα ELISA (see WO92/10190 and Current Protocols in Molecular Biology, vol 2 by Frederick M/Ausbel et al., John Wiley and Sons Inc.). […]

[3] = test system: TNFα production by human whole blood; test: Human Whole Blood test: inhibition of LPS-stimulated TNFα production; format: cell-based
Protocol: The ability of the compounds of this invention to inhibit TNFα production was also assessed in a human whole blood assay. Human whole blood secretes TNFα when stimulated with LPS. This property of blood forms the basis of an assay which is used as a secondary test for compounds which profile as active in the PBMC test.
Heparinised (10 units/ml) human blood was obtained from volunteers. 160 μl whole blood were added to 96 well round-bottom plates (Corning 25850). Compounds were solubilised and serially diluted in RPMI 1640 medium (Gibco) supplemented with 50 units/ml penicillin 50 μg/ml streptomycin and 2 mM glutamine, as detailed above. 20 μl of each test concentration was added to appropriate wells (triplicate cultures). 20 μl of RPMI 1640 medium supplemented with antibiotics and glutamine was added to control wells. Plates were incubated for 30 minutes at 37° C. (humidified incubator), prior to addition of 20 μl LPS (final concentration 10 μg/ml). RPMI 1640 medium was added to control wells. Six “LPS alone” and four “medium alone” controls were included on each plate. A known TNFα synthesis/secretion inhibitor was included in each test. Plates were incubated for 6 hours at 37° C. (humidified incubator). […] TNFα levels were measured by ELISA (see WO92/10190 and Current Protocols in Molecular Biology, vol 2 by Frederick M. Ausbel et al., John Wiley and Sons Inc.). […]

T1 sequence (Q16539 whole entry): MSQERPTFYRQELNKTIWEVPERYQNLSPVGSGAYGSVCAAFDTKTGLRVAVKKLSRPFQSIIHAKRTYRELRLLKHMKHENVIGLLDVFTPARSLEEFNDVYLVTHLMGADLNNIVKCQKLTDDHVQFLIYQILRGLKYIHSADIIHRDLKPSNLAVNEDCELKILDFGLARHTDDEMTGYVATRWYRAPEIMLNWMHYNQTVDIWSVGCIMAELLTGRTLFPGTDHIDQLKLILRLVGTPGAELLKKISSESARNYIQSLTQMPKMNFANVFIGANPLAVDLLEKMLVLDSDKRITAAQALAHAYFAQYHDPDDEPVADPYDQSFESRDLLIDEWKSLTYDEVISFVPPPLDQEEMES

Row | melting point [°C] | Compound | further results
1 | > 300 | COc1ccc(C(=O)Nc2cc(NC(=O)c3cccc(NS(C)(=O)=O)c3)ccc2C)cc1OC [Example 1, N-[5-(3-methanesulphonylaminobenzamido)-2-methylphenyl]-3,4-dimethoxybenzamide] | –
2 | 186 to 187 | COc1ccc(C(=O)Nc2cc(NC(=O)c3ccc(OCCCCl)cc3)ccc2C)cc1OC [Example 3, N-{5-[4-(3-chloropropoxy)benzamido]-2-methylphenyl}-3,4-dimethoxybenzamide] | –
3 | 165 to 166 | COc1ccc(C(=O)Nc2cc(NC(=O)c3ccc(OCCN4CCCC4)cc3)ccc2C)cc1OC [Example 4, N-{5-[4-(2-pyrrolidin-1-ylethoxy)benzamido]-2-methylphenyl}-3,4-dimethoxybenzamide] | –
4 | 148 to 149 | COc1ccc(C(=O)Nc2cc(NC(=O)c3ccc(OCCCN4CCOCC4)cc3)ccc2C)cc1OC [Example 5, Compound No. 3, N-{2-methyl-5-[4-(3-morpholinopropoxy)benzamido]phenyl}-3,4-dimethoxybenzamide] | –
5 | – | Cc1ccc(NC(=O)c2cccc(N3CCOCC3)c2)cc1NC(=O)c1cccc(OCCN2CCCC2)c1 [Example 7, Compound No. 19, N-[2-methyl-5-(3-morpholinobenzamido)phenyl]-3-(2-pyrrolidin-1-ylethoxy)benzamide] | IC50 [1]: ~100 nM; IC50 [2]: ~1000 nM; IC50 [3]: ~6000 nM
6 | – | COCCOc1ccc(C(=O)Nc2cc(NC(=O)c3ccc(C#N)cc3)ccc2C)cc1 [Example 8, N-[5-(4-cyanobenzamido)-2-methylphenyl]-4-(2-methoxyethoxy)benzamide] | IC50 [1]: ~100 nM; IC50 [2]: ~3000 nM
7 | 206 to 207 | COc1ccc(C(=O)Nc2cc(NC(=O)c3cccc(OCC(=O)O)c3)ccc2C)cc1OC [Example 18, N-[5-(3-carboxymethoxybenzamido)-2-methylphenyl]-3,4-dimethoxybenzamide] | –
8 | 164 to 165 | COc1ccc(C(=O)Nc2cc(NC(=O)c3ccc(N(C)CCCN(C)C)cc3)ccc2C)cc1OC [Example 20, N-{5-[4-(N-(3-dimethylaminopropyl)-N-methylamino)benzamido]-2-methylphenyl}-3,4-dimethoxybenzamide] | –
9 | 162 to 166 | Cc1ccc(NC(=O)c2cccc(N3CCOCC3)c2)cc1NC(=O)c1cccc(OC2CCNCC2)c1 [Example 25, N-[2-methyl-5-(3-morpholinobenzamido)phenyl]-3-piperidin4-yloxybenzamide] | –
10 | 168 to 169 | CCS(=O)(=O)Nc1cccc(C(=O)Nc2ccc(C)c(NC(=O)c3ccc(OC)c(OC)c3)c2)c1 [Example 26, N-{5-[3-(N-methylmethanesulphonylamino)benzamido]-2′-methylphenyl}-3,4-dimethoxybenzamide] | –
11 | 239 to 240 | Cc1ccc(NC(=O)c2cccc(N(C)C)c2)cc1NC(=O)c1cccc(NS(C)(=O)=O)c1 [Example 27, N-[5-(3-dimethylaminobenzamido)-2-methylphenyl]-3-methanesulphonylaminobenzamide] | –
12 | 239 to 240 | Cc1ccc(NC(=O)c2cccc(N(C)C)c2)cc1NC(=O)c1ccccc1NCCCN1CCOCC1 [Example 35, N-[5-(3-dimethylaminobenzamido)-2-methylphenyl]-2-(3-morpholinopropylamino)benzamide] | –
13 | 178 to 179 | Cc1ccc(NC(=O)c2cccc(N(C)C)c2)cc1NC(=O)c1ccc(N(C)CCCN(C)C)cc1 [Example 36, N-[5-(3-dimethylaminobenzamido)-2-methylphenyl]-4-(3-dimethylamino-N-methylpropylamino)benzamide] | –
14 | 192 to 193 | CCCS(=O)(=O)Nc1cccc(C(=O)Nc2cc(NC(=O)c3cccc(N4CCOCC4)c3)ccc2C)c1 [Example 62, N-[2-methyl-5-(3-morpholinobenzamido)phenyl]-3-(N-ethylmethanesulphonylamino)benzamide] | –
